In US12414961B2, “Substituted nucleosides and nucleotides for treating viral infections” (priority 2013, dated 2025):

Tests used:
[1] = Cytotoxicity (CC50) Huh-7; conditions: human, Huh-7 cells
[2] = Cytotoxicity (CC50) HepG2; conditions: human, HepG2 cells
[3] = system: Dengue Type 2; assay: Anti-Dengue virus cytoprotection assay, Vero cells; conditions: read-out: Dengue Type 2 Vero Cells (EC50 uM)
[4] = Cytotoxicity (CC50) IEC-6; assay type: cell-based; conditions: rat, IEC-6 cells
[5] = Cytotoxicity (CC50) H9c; assay type: cell-based; conditions: rat, H9c cells
[6] = Cytotoxicity (CC50) CEM; conditions: human, CEM cells
[7] = Cytotoxicity (CC50) A204; assay type: cell-based; conditions: human, A204 cells
[8] = Cytotoxicity (CC50) BxPC3; conditions: human, BxPC3 cells
[9] = Cytotoxicity in Vero cells (Dengue assay); conditions: African green monkey
[10] = Cytotoxicity in Huh-7 cells (Dengue assay); conditions: human, Huh-7 cells
[11] = system: Dengue Type 2; assay: Anti-Dengue virus cytoprotection assay, Huh-7 cells; conditions: Huh-7, read-out: Dengue Type 2 Huh-7 Cells (EC50 uM)
[12] = system: Huh-7 cells; assay: Cytotoxicity in Huh-7 cells (Dengue assay); conditions: read-out: CC50 uM; Cell Line Huh-7; […], 3, 4 table
[13] = system: HBV; assay: HBV antiviral assay; assay type: cell-based; conditions: Hepatitis B virus
Protocol: Ten microliters of cell culture supernatant collected on the sixth day was diluted in qPCR dilution buffer (40 μg/mL sheared salmon sperm DNA) and boiled for 15 minutes. Quantitative real time PCR was performed in […] using an Applied Biosystems 7900HT Sequence Detection System and the supporting SDS 2.4 software. Five microliters (5 μL) of boiled DNA for each sample and serial 10-fold dilutions of a quantitative DNA standard were subjected to real time Q-PCR using Platinum Quantitative PCR SuperMix-UDG (Invitrogen) and specific DNA oligonucleotide primers (IDT, Coralville, […]) HBV-AD38-qF1 (5′-[…] -3′) (SEQ ID NO: 1), HBV-AD38-qR1 (5′-AGT CCA AGA GTY CTC TTA TRY AAG ACC TT-3′) (SEQ ID NO: 2), and HBV-AD38-qP1 (5′-FAM CCG TGT GCA/ZEN/[…] -3′BHQ1) (SEQ ID NO: 3) at a final concentration of 0.2 μM for each primer in a total reaction volume of 15 μL. The HBV DNA copy number in each sample was interpolated from the standard curve by the SDS.24 software and the data were imported into an Excel spreadsheet for analysis.

[14] = system: HIV; assay: HIV infected PBMC assay; assay type: cell-based; conditions: Human immunodeficiency virus 1, PBMC
Protocol: Fresh human peripheral blood mononuclear cells (PBMCs) were obtained from a commercial source (Biological Specialty) and were determined to be seronegative for HIV and HBV. Depending on the volume of donor blood received, the leukophoresed blood cells were washed several times with PBS. After washing, the leukophoresed blood was diluted 1:1 with Dulbecco's phosphate buffered saline (PBS) and layered over 15 mL of Ficoll-Hypaque density gradient in a 50 ml conical centrifuge tube. These tubes were centrifuged for 30 min at 600 g. Banded PBMCs were gently aspirated from the resulting interface and washed three times with PBS. […] After incubation, PBMCs were centrifuged and resuspended in tissue culture medium. The cultures were maintained until use by half-volume culture changes with fresh IL-2 containing tissue culture medium every 3 days. […]
Following addition of test compound to the wells, 50 uL of a predetermined dilution of HIV virus (prepared from 4× of final desired in-well concentration) was added, and mixed well. […] After 7 days in culture, HIV-1 replication was quantified in the tissue culture supernatant by measurement of reverse transcriptase (RT) activity. […]
Reverse Transcriptase Activity Assay—Reverse transcriptase activity was measured in cell-free supernatants using a standard radioactive incorporation polymerization assay. […]

[15] = Cytotoxicity in PBM cells; assay type: cell-based; conditions: human, peripheral blood mononuclear cells (PBMCs), PHA-P stimulated; beside HIV
[16] = system: HCMV; assay: HCMV antiviral assay; assay type: cell-based; conditions: Human betaherpesvirus 5
[17] = system: Huh-7 cells; assay: Cytotoxicity in Huh-7 cells (Adenovirus, HSV-1 assays); assay type: cell-based, human; conditions: beside HSV-1
[18] = system: Adenovirus; assay: Adenovirus antiviral assay; assay type: cell-based; conditions: unidentified adenovirus
[19] = system: HSV-1; assay: HSV-1 antiviral assay; assay type: cell-based; conditions: Human alphaherpesvirus 1
[20] = Cytotoxicity in HepG2 cells (HBV assay); assay type: cell-based; conditions: human, HepG2.2.15 cells; beside HBV
Protocol: The 50% cytotoxic concentration for the test materials are derived by measuring the reduction of the tetrazolium dye XTT in the treated tissue culture plates. XTT is metabolized by the mitochondrial enzyme […] to a soluble formazan product in metabolically active cells. […] The 2-4 hour incubation has been empirically determined to be within linear response range for XTT dye reduction with the indicated numbers of cells for each assay. […] Data were collected by Softmax 4.6 software and imported into an Excel spreadsheet for analysis.

[21] = Cytotoxicity in MRC-5 cells (HCMV, VZV assays); assay type: cell-based; conditions: human, MRC-5 cells; beside HCMV
[22] = system: MRC-5 Cells; assay: Cytotoxicity in MRC-5 cells (HCMV, VZV assays); assay type: cell-based; conditions: beside VZV
[23] = system: VZV; assay: VZV antiviral assay; assay type: cell-based; conditions: Human alphaherpesvirus 3

CC(C)OC(=O)[C@H](C)NP(=O)(OC[C@H]1O[C@@H](n2ccc(=O)[nH]c2=S)C(C)(O)[C@H]1O)Oc1ccccc1 (some centres unmarked) [drawing 387]
CC50 [1]: > 400 µM | CC50 [2]: > 400 µM | EC50 [3]: 2.02 µM | CC50 [4]: > 200 µM | CC50 [5]: > 200 µM | CC50 [6]: > 300 µM | CC50 [7]: 98 µM | CC50 [8]: > 300 µM | CC50 [9]: > 100 µM | CC50 [10]: > 100 µM | EC50 [11]: 5.1 µM

CC(C)OC(=O)[C@H](C)N[P@](=O)(OC[C@H]1O[C@@H](n2ccc(=O)[nH]c2=S)C(C)(O)[C@H]1O)Oc1ccccc1 (some centres unmarked) [drawing 393]
CC50 [12]: > 100 µM

CC(C)OC(=O)[C@H](C)NP(=O)(OC[C@H]1O[C@@H](n2ccc(=O)[nH]c2=S)C(C)(O)[C@H]1O)Oc1ccccc1 (some centres unmarked) [drawing 394]
EC50 [13]: > 100 µM | EC50 [14]: > 100 µM | CC50 at 7 days [15]: > 100 µM | EC50 [16]: > 100 µM | CC50 [17]: > 100 µM | EC50 [18]: > 100 µM | EC50 [19]: > 100 µM | CC50 at 6 days [20]: > 100 µM | CC50 [21]: > 100 µM | CC50 [22]: > 100 µM | EC50 [23]: > 100 µM
